Values joined by “and” are separate entries in the source; they are usually repeats but may differ in a detail not shown here. Equal entries are not always repeated.
What was measured:
guinea pig uterus = format: cell-based
From the text: A female virgin guinea pig that was in oestrous and weighing around 400-500 gm was used for the test. The animal was killed by a stunning blow on the head. The abdomen was immediately cut open. The uterus was dissected out and placed in a petri plate containing aerated De Jalon's solution (M. N Ghosh, in fundamentals of Experimental Pharmacology, 1984, second edition, Scientific book agency, Calcutta). The uterus was freed from fat and the two uterine horns were separated by cutting the lower end. Only one horn was used for the experiment. Two small loops of thread were made at each end of the uterus and kept in a tissue bath of 10 ml capacity containing aerated De Jalon's solution. The lower end was tied to the tissue holder and the upper end to the writing lever. The lever was balanced to provide a tension of 1 g with plasticene. The tissue was left in the bath for ½ hr for stabilisation before starting the experiment and the physiological solution (De Jalon's solution) was renewed every 10 minutes. This example illustrates the procedure used for the preparation of the guinea pig uterus for testing the oxytocic property of the pure white solid, 2-deoxy ecdysterone.
After stabilisation, 2-3 doses of oxytocin (Parke Davis Ltd, Hyderabad) were added as standard to the physiological solution, the dose depending on the amplitude of contraction to obtain uniform contractions. The extract was then added to the bath (50 & 250 μg/ml) and allowed to act for one minute. If a contraction was observed during that one-minute period, extract was considered to be oxytocin-like and having oxytocic property. After every contraction, the tissue was immediately washed twice with the physiological solution and relaxed for 10 minutes. The same procedure was followed for the crude extract, fractions and the purified white solid, identified as 2-deoxy ecdysterone.
The oxytocic activity of the crude, fractions and the pure compound was tested on the guinea pig uterus based on its ability to contract the relaxed uterus. The tissue was spiked with a standard oxytocic agent which induces contraction of the tissue. The efficacy of the testing agent was measured by its ability to contract the uterus by comparing the height of contraction with the standard oxytocin (Table 1). This example illustrates the procedure used for testing the crude extract and the detailed procedure followed.

[1] = radiolabelled compound injected into human volunteers; within 5 hours; cited from earlier work

Row | Compound | % response compared to standard PGF2α (guinea pig uterus) | % response compared to standard oxytocin (guinea pig uterus) | Inducing contractions in the guinea pig uterus (guinea pig uterus) | Potency compared with standard oxytocin and PGF2α (guinea pig uterus) | Radioactivity excreted in the urine [1]
1 | 2-deoxy ecdysterone | 69.4% and 82.3% and 114.1% | 80.8% and 92.3% and 118.0% | effective | more potent than the standard oxytocin and PGF2α | –
2 | CCCCC[C@H](O)/C=C/[C@H]1[C@H](O)CC(=O)[C@@H]1C/C=C\CCCC(=O)O [PGE2] | – | – | – | – | about 50%
3 | CCCCC[C@H](O)/C=C/[C@@H]1[C@@H](C/C=C\CCCC(=O)O)[C@@H](O)C[C@H]1O [PGF2α] | – | – | – | – | around 90%

— patent US6617319B2, “Methods of use for 2-deoxy ecdysterone” (Council of Science and Industrial Research, priority 2000, dated 2003)
